Test results reported in paper PMC12442099 (ACS Infectious Diseases, 2025).
≈ marks a conversion by molar mass, not a printed value.

Experiments:
[1] = system: Rcs stress (PrprA-mNG) in E. coli TOP10F’ cells; test: Rcs stress reporter assay, laboratory scale 96-well end point; format: cell-based; settings: 50 μM MRL-494, 150 min, compared to 25 μM PMBN (100%)
Description: (§1) For lower throughput analysis under laboratory conditions, cultures grown to OD600 of 0.3–0.4 were diluted to a final concnetration of 0.05 OD600 units/mL in black, clear-bottom 96-well plates (Greiner Bio-One B.V.). Plates were incubated in a Biotek HTX or H1 plate reader (Agilent Technologies) at 37 °C with continuous shaking. Kinetic studies were performed by measuring OD600 and fluorescence (Ex./Em. Λ: 485/528 nm) every 20 min for 10h. For end point measurements, fluorescence was measured at T = 0 and once more at T = 150 min.

E. coli TOP10F' = test: Growth inhibition after 7 hours (EC80/EC50); settings: for EC50 / IC80: Escherichia coli, 7 h; for EC50: read-out: EC50 TOP10F'; for IC80: read-out: EC80 TOP10F'
[2] = system: E. coli MC4100 FQR and GEPR mutants; test: Growth kinetics on resistant mutants; format: cell-based; settings: EC80 concentrations, Fig. S3
Description: ONC of E. coli MC4100 were diluted to OD600 = 0.07 in 20 mL LB supplemented with an initial concentration of 0.4 μM lomefloxacin, 8 μM gepotidacin, or no antibiotic. After overnight incubation, part of the culture was plated onto LB agar plates with the same concentration of lomefloxacin or gepotidacin to isolate resistant colonies. OD600 of the remaining culture was determined and diluted to OD600 = 0.1 into fresh medium with a 1.5–2-fold increased concentration of lomefloxacin or gepotidacin. […] Resistant colonies were sent for Whole Genome Sequencing using short Illumina reads at MicrobesNG (Birmingham, UK). Sequencing data was analyzed using CLC Genomics Workbench (Qiagen).
Figure S3: Growth kinetics of lomefloxacin, gepotidacin, A2 and B1 on WT, FQR and GEPR mutants. E. coli
TOP10F’ cells were treated with EC80 concentrations of compounds and growth (OD600) recorded over time.
Graphs indicate % growth compared to DMSO control. Error bars indicate standard deviations of triplicates. […]

E. coli MC4100 = test: Growth inhibition after 7 hours (EC80/EC50); settings: Escherichia coli, MC4100, 7 h; for EC50: read-out: EC50 MC4100; for IC80: read-out: EC80 MC4100
[3] = system: Rcs stress response in E. coli MC4100 (WT, FQR, GEPR); test: Rcs stress reporter assay in MC4100 wildtype and resistant mutants; format: cell-based; settings: EC80 concentrations
Source text: Serial passaging of E. coli MC4100 in the presence of increasing concentrations of lomefloxacin or gepotidacin yielded resistant variants of E. coli MC4100. We used MC4100 to raise resistance, because unlike the screening strain TOP10F’, this strain has a functional SOS stress response, which has been implicated in developing resistance against quinolones. Compounds also elicited a robust Rcs stress response in E. coli MC4100, allowing for this strain to be used for stress assays.
4 Rcs stress induced by EC80 concentrations of (A) lomefloxacin, (B) gepotidacin, (C) A2, and (D) B1 in wildtype (WT), fluoroquinolone resistant (FQR) or gepotidacin resistant (GEPR) bacteria. Graphs show the fold change in fluorescence adjusted for bacterial growth as determined by OD600. Error bars indicate the standard deviation of triplicate samples. Data are representative of three independent experiments with similar results. […]
as §1

[4] = system: σE stress response in E. coli TOP10F’; test: σE stress kinetics reporter assay; format: cell-based
Description: (§2) Stress was measured in real-time during 10 h following compound treatment by normalizing the fluorescence intensity for growth as indicated by the optical density at 600 nm (OD600) of the culture.
(§3) 3 Bacterial stress responses of different compound classes as shown in panel (A). (B) Rcs, (C) σE, (D) Cpx, and (E) heat shock. Graphs show fold change in fluorescence normalized for OD600 at EC80 compound concentrations over the course of 10h. Fold change values were determined by comparing OD600‑normalized fluorescence of compound-treated samples to DMSO treated samples. PMBN is used as a CE stress-inducing control at 25 μg/mL, which is the concentration used as a control during the screening campaign. Chloramphenicol at 1 μg/mL is used as a non-stress-inducing antibiotic control. Error bars indicate standard deviation of the average of triplicate samples from at least two independent experiments. (F) Overview of the different stress responses based on the compound class.
as §1

[5] = system: Rcs stress response in E. coli TOP10F’; test: Rcs stress kinetics reporter assay; format: cell-based
Description: as §2, §3, §1

[6] = system: Cpx stress response in E. coli TOP10F’; test: Cpx stress kinetics reporter assay; format: cell-based
Description: as §2, §3, §1

S. aureus USA 300 = test: MIC broth microdilution; format: cell-based; settings: Staphylococcus aureus, USA300; clinical isolate; CAMHB, median of triplicates; read-out: MIC (μg/mL) S. aureus USA 300
Description: (§4) The antibacterial activity of the compounds was determined by measuring their minimum inhibitory concentration (MIC) values using the broth microdilution method according to the Clinical and Laboratory Standards Institute guidelines (CLSI). Briefly, a single colony from blood agar plates was inoculated into cation-adjusted Mueller-Hinton broth (CAMHB) and grown to OD600 = 0.5. Next, 10^6 CFU/mL were added to a 2-fold serial dilution series of test compounds and incubated at 37 °C, 600 rpm overnight (18–20 h for Gram-negative strains, 20–24 h for Gram-positive strains), after which the plates were visually inspected for bacterial growth. MICs are reported as the median of triplicates.

E. coli TOP10F’ = test: MIC broth microdilution; format: cell-based; settings: Escherichia coli; screening strain; CAMHB, median of triplicates; read-out: MIC (μg/mL) E. coli TOP10F’
Description: as §4

E. coli BW25113 = test: MIC broth microdilution; format: cell-based; settings: Escherichia coli, CAMHB, median of triplicates, read-out: MIC (μg/mL) E. coli BW25113
Description: as §4

E. coli 25922 = test: MIC broth microdilution; format: cell-based; settings: Escherichia coli, CAMHB, median of triplicates, read-out: MIC (μg/mL) E. coli 25922
Description: as §4

A. baumanni 9955 = test: MIC broth microdilution; format: cell-based; settings: Acinetobacter baumannii, clinical isolate, CAMHB, median of triplicates, read-out: MIC (μg/mL) A. baumanni 9955
Description: as §4

P. aeruginosa 27853 = test: MIC broth microdilution; format: cell-based; settings: Pseudomonas aeruginosa, clinical isolate, CAMHB, median of triplicates, read-out: MIC (μg/mL) P. aeruginosa 27853
Description: as §4

K. pneumoniae 13883 = test: MIC broth microdilution; format: cell-based; settings: Klebsiella pneumoniae, clinical isolate, CAMHB, median of triplicates, read-out: MIC (μg/mL) K. pneumoniae 13883
Description: as §4

[7] = system: SOS stress response in E. coli TOP10F’; test: SOS stress reporter assay (PlexA-mNG); format: cell-based; settings: Fig. S4
Description: (§5) To examine the potential link between DNA gyrase inhibition, SOS stress, and CE stress, we designed a fluorescent SOS reporter plasmid, similar to the reporter plasmids used to study CE stresses.
Figure S3: Growth kinetics of lomefloxacin, gepotidacin, A2 and B1 on WT, FQR and GEPR mutants. E. coli TOP10F’ cells were treated with EC80 concentrations of compounds and growth (OD600) recorded over time.
Graphs indicate % growth compared to DMSO control. Error bars indicate standard deviations of triplicates.
Data are representative of three independent experiments with similar results.
Fold change (RFU/OD600) MMC 1.6 μM
Fold change (RFU/OD600) Lome 18 μM
Figure S4: SOS stress induced by mitomycin C (MMC) and lomefloxacin (Lome). A) E. coli MC4100 or B) TOP10F’ cells with a plasmid expressing mNeonGreen under control of a PlexA promotor were treated with compounds and growth (OD600) and fluorescence recorded over time. Graphs indicate fold change in growth-adjusted fluorescence compared to DMSO control. Error bars indicate standard deviations of triplicates. […]

[8] = system: SOS stress response in E. coli MC4100; test: SOS stress reporter assay (PlexA-mNG); format: cell-based; settings: EC80 compound concentrations (Fig. 5A); Fig. S4
Source text: as §5
5 (A) SOS stress induced by different compounds at EC80 concentrations in E. coli MC4100. (B) Rcs stress of different compounds at EC80 concentrations in E. coli MC4100. (C) Rcs stress of the nonquinolone gyrase inhibitor LEI-800 in TOP10F’. (D) Rcs stress induced by mitomycin C in E. coli TOP10F’ and E. coli MC4100. Graphs show fold change in fluorescence adjusted for bacterial growth (OD600). Error bars indicate standard deviation of triplicates. Data are representative of two independent experiments with similar results.

[9] = system: heat shock (groES) response in E. coli TOP10F’; test: Heat shock (groES) stress kinetics reporter assay; format: cell-based; settings: PMBN 25 μg/mL
Description: as §2
3 Bacterial stress responses of different compound classes as shown in panel (A). (B) Rcs, (C) σE, (D) Cpx, and (E) heat shock. Graphs show fold change in fluorescence normalized for OD600 at EC80 compound concentrations over the course of 10h. Fold change values were determined by comparing OD600‑normalized fluorescence of compound-treated samples to DMSO treated samples. PMBN is used as a CE stress-inducing control at 25 μg/mL, which is the concentration used as a control during the screening campaign. Chloramphenicol at 1 μg/mL is used as a non-stress-inducing antibiotic control. […]
as §1

[10] = compounds at EC80, PMBN 25 μg/mL
[11] = Figure 3F, compounds at EC80, PMBN 25 μg/mL

NC(N)=NC(=O)CC(Nc1nc(N=C(N)N)nc(NC2CCC(NC(=O)Cn3nnc(-c4ccc(F)cc4)n3)CC2)n1)C1CC1 (stereo not shown) [MRL-494, reference compound]
% effect (Rcs stress-induced fluorescence) [1]: 100.4%
EC50 TOP10F' (E. coli TOP10F'; growth after 7 hours inhibited by 50% compared to DMSO control): 16 µg/mL (≈ 25.7 µM)
EC80 TOP10F' (E. coli TOP10F'; growth after 7 hours inhibited by 80% compared to DMSO control): 32 µg/mL (≈ 51.4 µM)

O=c1ccc2ncc(=O)n3c2n1C[C@H]3CN1CCC(NCc2cc3c(cn2)OCCC3)CC1 [gepotidacin, Gepotidacin, reference compound]
growth inhibition / susceptibility of FQR (gyrA S83L) mutant [2]: remained susceptible to growth inhibition
growth inhibition / susceptibility of GEPR mutant [2]: moderate insensitivity
EC50 (E. coli MC4100): 1 µg/mL (≈ 2.23 µM)
IC80 (E. coli MC4100): 8 µg/mL (≈ 17.8 µM)
EC50 (E. coli TOP10F'): 0.125 µg/mL (≈ 0.279 µM)
IC80 (E. coli TOP10F'): 8 µg/mL (≈ 17.8 µM)
Rcs stress in FQR (gyrA S83L) mutant [3]: still exhibited Rcs stress
Rcs stress in GEPR mutant [3]: did not show Rcs stress
time of primary σE peak ([4]; EC80 concentrations): ~150 min
σE onset time ([4]; EC80 concentrations): ~60 min
fold change in σE stress (up to) ([4]; EC80 concentrations, vs DMSO): ~3 fold
σE Pattern [4, 10]: biphasic
Rcs onset time ([5]; EC80 concentrations): ~100 min
time of (first) Rcs peak post-treatment ([5]; EC80 concentrations): 260 to 280 min
fold increase in Rcs stress (up to) ([5]; EC80 concentrations, fluorescence/OD600 vs DMSO, 10 h): ~17 fold
Rcs Pattern [5, 10]: biphasic
Cpx onset time ([6]; EC80 concentrations): 150 to 200 min
MIC (S. aureus USA 300): 0.25 µg/mL (≈ 0.557 µM)
MIC (E. coli TOP10F’): 0.06 µg/mL (≈ 0.134 µM)
MIC (E. coli BW25113): 1 µg/mL (≈ 2.23 µM)
MIC (E. coli 25922): 2 µg/mL (≈ 4.46 µM)
MIC (A. baumanni 9955): 16 µg/mL (≈ 35.7 µM)
MIC (P. aeruginosa 27853): 8 µg/mL (≈ 17.8 µM)
MIC (K. pneumoniae 13883): 4 µg/mL (≈ 8.92 µM)

CCn1cc(C(=O)O)c(=O)c2cc(F)c(N3CCNC(C)C3)c(F)c21 (stereo not shown) [lomefloxacin, Lomefloxacin, reference compound]
SOS stress induction in TOP10F’ [7]: did not induce high fluorescence
SOS stress induction in MC4100 [8]: high fluorescence
growth inhibition / susceptibility of GEPR mutant [2]: less susceptible
EC50 (E. coli MC4100): 0.125 µg/mL (≈ 0.356 µM)
IC80 (E. coli MC4100): 0.25 µg/mL (≈ 0.712 µM)
EC50 (E. coli TOP10F'): 0.031 µg/mL (≈ 0.0882 µM)
IC80 (E. coli TOP10F'): 2 µg/mL (≈ 5.69 µM)
Rcs stress in FQR (gyrA S83L) mutant [3]: lacked Rcs stress

CO[C@@]12[C@H](COC(N)=O)C3=C(C(=O)C(C)=C(N)C3=O)N1C[C@@H]1N[C@@H]12 [mitomycin C]
SOS stress induction in TOP10F’ [7]: did not induce high fluorescence
SOS stress induction in MC4100 [8]: high fluorescence
Rcs stress induction in MC4100 wildtype [3]: Neither compound induced Rcs stress
Rcs stress induction in SOS-deficient TOP10F’ ([5]; fold change fluorescence/OD600): at lower levels than the gyrase inhibitors

polymyxin B nonapeptide [PMBN]
σE Response time [4, 11]: Fast
σE Pattern [4, 10]: Single peak
heat shock induction [9]: did not induce heat shock
Rcs Response time [5, 11]: Fast
Rcs Pattern [5, 10]: Single peak
Cpx Pattern [6, 11]: Continuous
Cpx Response time [6, 11]: Slow
